Blank lines part the entries; values can stand above or below the compound they belong to.
Experiments:
[1] = Solid-state stability upon storage at room temperature; format: physicochemical; conditions: hemi-ethanolate for at least one month, methanolate prolonged storage
Excerpt: In practice, the molar ratio between aripiprazole and ethanol moieties in the isolated product is from 1:0.4 to 1:0.6, preferably 1:0.45 to 1:0.6.

[2] = Solid-state stability towards thermal energy, milling and forced sieving; conditions: for change of crystalline structure during milling: milling (Example 7: ball mill 1 minute, IR and XRPD)
[3] = as taught in WO 03/26659, cited from earlier work

Structure (SMILES): O=C1CCc2ccc(OCCCCN3CCN(c4cccc(Cl)c4Cl)CC3)cc2N1 [Aripiprazole hemi-ethanolate, 7-[4-[4-(2,3-dichlorophenyl)-1-piperazinyl]butoxy]-3,4-dihydrocarbostyril]
stability upon storage [1]: reasonably stable
stability towards thermal energy, including milling [2]: rather unstable

Structure (SMILES): O=C1CCc2ccc(OCCCCN3CCN(c4cccc(Cl)c4Cl)CC3)cc2N1 [aripiprazole methanolate, 7-[4-[4-(2,3-dichlorophenyl)-1-piperazinyl]butoxy]-3,4-dihydrocarbostyril]
stability upon storage [1]: more stable upon prolonged storage at room temperature than the hemi-ethanolate
change of crystalline structure during milling [2]: does not change its crystalline structure

Structure (SMILES): O=C1CCc2ccc(OCCCCN3CCN(c4cccc(Cl)c4Cl)CC3)cc2N1 [Example 5]
effect of forced sieving on the crystal structure ([2]; pressed through a 100 μm sieve, IR, XRPD): no detectable effect on the crystal structure

Structure (SMILES): O=C1CCc2ccc(OCCCCN3CCN(c4cccc(Cl)c4Cl)CC3)cc2N1 [Type I aripiprazole, 7-[4-[4-(2,3-dichlorophenyl)-1-piperazinyl]butoxy]-3,4-dihydrocarbostyril]
hygroscopicity [3]: significantly hygroscopic

change of crystalline structure during milling [2]: crystal structure has not been changed
Structure (SMILES): O=C1CCc2ccc(OCCCCN3CCN(c4cccc(Cl)c4Cl)CC3)cc2N1 [Example 7]

Structure (SMILES): O=C1CCc2ccc(OCCCCN3CCN(c4cccc(Cl)c4Cl)CC3)cc2N1 [Anhydrous Form B, 7-[4-[4-(2,3-dichlorophenyl)-1-piperazinyl]butoxy]-3,4-dihydrocarbostyril]
water uptake ([3]; in 24 hours): less than 0.4%
